The test has as its system DDM-reactive J.RT3/CD8-2 cells. The test can be described thus: T cell stimulation by DDM after proteinase K or pronase treatment. In kind it is cell-based. To be noted: 4 hours at 40° C. An excerpt:
FIG. 4B is a graph depicting the proliferative response of DDM-reactive J.RT3/CD8-2 cells stimulated in the presence of mock treated DDM, DDM treated with proteinase K, DDM treated with pronase, or no antigen.
The Nex antigen is the second peptidic antigen shown to be presented by CD1. The other one, DDM, is presented by CD1a. Although processing of proteins for presentation on MHC Class I and Class II molecules is well characterized, little is known about processing of CD1-presented peptides. […] DDM has no such cleavage sites for proteases. To examine the protease sensitivity of Nex, Nex and DDM were treated with non-specific proteases and T cell stimulation by each antigen was examined.
Pronase is a mixture of endopeptidases and exopeptidases (carboxypeptidases and aminopeptidases) which digests denatured and native proteins into individual amino acids. Proteinase K is an endopeptidase with a preference for cleavage between an aliphatic, aromatic, or hydrophobic and any other amino acid, however, it will digest any peptidic bond if added in excess and over long incubation periods. […]
To test whether treated Nex mixtures were toxic to T cells, T cell stimulation was measured in the presence of a high concentration (10 μg/ml) of treated Nex and a suboptimal concentration of untreated Nex. […]

The values that follow come from patent publication US20080226587A1, “METHODS AND COMPOSITIONS FOR IMMUNOMODULATION” (priority 2006, published 2008).

For the substance didehydroxymycobactin [DDM], the “ability to stimulate T cell proliferation after protease treatment” value was “did not diminish”.
